Measurements reported in US4311698A, “Aminoacid derivatives of cephalosporin compounds” (priority 1980, dated 1982).
≈ marks a conversion by molar mass, not a printed value.

Columns and labels:
Assay type in all cases: cell-based
Pseudomonas #28 = assay: In vitro minimal inhibitory concentration, Pseudomonas #28; conditions: Pseudomonas #28; in vitro; read-out: Minimal Inhibitory Concentration
Pseudomonas BRK 12-4-4 = assay: In vitro minimal inhibitory concentration, Pseudomonas BRK 12-4-4; conditions: BRK1244
Pseudomonas UI 18 = assay: In vitro minimal inhibitory concentration, Pseudomonas UI 18; conditions: UI18
E. Coli. Brig = assay: In vitro minimal inhibitory concentration, E. Coli. Brig; conditions: Escherichia coli
E. Coli. Vogel = assay: In vitro minimal inhibitory concentration, E. Coli. Vogel; conditions: Escherichia coli
Prot Vulg. = assay: In vitro minimal inhibitory concentration, Prot Vulg.
Entero Cloac. IM 11 = assay: In vitro minimal inhibitory concentration, Entero Cloac. IM 11
Serr. Mar. IMM 16 = assay: In vitro minimal inhibitory concentration, Serr. Mar. IMM 16
Klebs. Pneum. MGH 2 = assay: In vitro minimal inhibitory concentration, Klebs. Pneum. MGH 2
Strep. fec. MGH 2 = assay: In vitro minimal inhibitory concentration, Strep. fec. MGH 2
Staph UC76 = assay: In vitro minimal inhibitory concentration, Staph UC76
Staph S 18713 = assay: In vitro minimal inhibitory concentration, Staph S 18713

CC(=O)OCC1=C(C(=O)O)N2C(=O)C(NC(=O)[C@H](NC(=O)c3ccc(-c4ccc(NC(=O)[C@@H]5CCC(=O)N5C)cc4)[nH]c3=O)c3ccccc3)C2SC1 (stereo partly drawn) [Example 34, N-[6-[4-[N-Methyl-5-oxo-L-prolylamino]phenyl]-1,2-dihydro-2-oxo-nicotinyl]-7-[D-2-amino-2-phenylacetamido]-3-acetoxymethyl-3-cephem-4-carboxylic acid]
MIC (Pseudomonas #28): 6.3 µg/mL (≈ 8.48 µM)
MIC (Pseudomonas BRK 12-4-4): 12.5 µg/mL (≈ 16.8 µM)
MIC (Pseudomonas UI 18): 6.3 µg/mL (≈ 8.48 µM)
MIC (E. Coli. Brig): 12.5 µg/mL (≈ 16.8 µM)
MIC (E. Coli. Vogel): 3.1 µg/mL (≈ 4.17 µM)
MIC (Prot Vulg.): 12.5 µg/mL (≈ 16.8 µM)
MIC (Entero Cloac. IM 11): 12.5 µg/mL (≈ 16.8 µM)
MIC (Serr. Mar. IMM 16): 50 µg/mL (≈ 67.3 µM)
MIC (Klebs. Pneum. MGH 2): 6.3 µg/mL (≈ 8.48 µM)
MIC (Strep. fec. MGH 2): 25 µg/mL (≈ 33.7 µM)
MIC (Staph UC76): 0.4 µg/mL (≈ 0.539 µM)
MIC (Staph S 18713): 3.1 µg/mL (≈ 4.17 µM)

CC(=O)N[C@@H](C)C(=O)Nc1ccc(-c2ccc(C(=O)N[C@@H](C(=O)NC3C(=O)N4C(C(=O)O)=C(CSc5nnc(C)s5)CSC34)c3ccccc3)c(=O)[nH]2)cc1 (stereo partly drawn) [Example 15, N-[6-[4-(N-Acetyl-L-alanylamino)phenyl]-1,2-dihydro-2-oxonicotinyl]-7-[D-2-amino-2-phenylacetamido]-3-[([5-methyl-1,3,4-thiadiazolyl-2-yl]thio)methyl]-3-cephem-4-carboxylic acid]
MIC (Pseudomonas #28): 12.5 µg/mL (≈ 15.6 µM)
MIC (Pseudomonas BRK 12-4-4): 12.5 µg/mL (≈ 15.6 µM)
MIC (Pseudomonas UI 18): 12.5 µg/mL (≈ 15.6 µM)
MIC (E. Coli. Brig): 6.3 µg/mL (≈ 7.85 µM)
MIC (E. Coli. Vogel): 1.6 µg/mL (≈ 1.99 µM)
MIC (Prot Vulg.): 12.5 µg/mL (≈ 15.6 µM)
MIC (Entero Cloac. IM 11): 12.5 µg/mL (≈ 15.6 µM)
MIC (Serr. Mar. IMM 16): 25 µg/mL (≈ 31.1 µM)
MIC (Klebs. Pneum. MGH 2): 3.1 µg/mL (≈ 3.86 µM)
MIC (Strep. fec. MGH 2): 12.5 µg/mL (≈ 15.6 µM)
MIC (Staph UC76): 0.4 µg/mL (≈ 0.498 µM)
MIC (Staph S 18713): 6.3 µg/mL (≈ 7.85 µM)

CC(=O)N[C@@H](CCC(N)=O)C(=O)Nc1ccc(-c2ccc(C(=O)N[C@@H](C(=O)NC3C(=O)N4C(C(=O)O)=C(COC(C)=O)CSC34)c3ccccc3)c(=O)[nH]2)cc1 (stereo partly drawn) [Example 14, N-[6-[4-(N-Acetyl-L-glutaminylamino)phenyl]-1,2-dihydro-2-oxonicotinyl]-7-[D-2-amino-2-phenylacetamido]-3-acetoxymethyl-3-cephem-4-carboxylic acid]
MIC (Pseudomonas #28): 3.1 µg/mL (≈ 3.93 µM)
MIC (Pseudomonas BRK 12-4-4): 6.3 µg/mL (≈ 8 µM)
MIC (Pseudomonas UI 18): 6.3 µg/mL (≈ 8 µM)
MIC (E. Coli. Brig): 6.3 µg/mL (≈ 8 µM)
MIC (E. Coli. Vogel): 1.6 µg/mL (≈ 2.03 µM)
MIC (Prot Vulg.): 25 µg/mL (≈ 31.7 µM)
MIC (Entero Cloac. IM 11): 12.5 µg/mL (≈ 15.9 µM)
MIC (Serr. Mar. IMM 16): 50 µg/mL (≈ 63.5 µM)
MIC (Klebs. Pneum. MGH 2): 3.1 µg/mL (≈ 3.93 µM)
MIC (Strep. fec. MGH 2): 12.5 µg/mL (≈ 15.9 µM)
MIC (Staph UC76): 0.8 µg/mL (≈ 1.02 µM)
MIC (Staph S 18713): 1.6 µg/mL (≈ 2.03 µM)

CC(=O)N[C@H](C)C(=O)Nc1ccc(-c2ccc(C(=O)N[C@@H](C(=O)NC3C(=O)N4C(C(=O)O)=C(COC(C)=O)CSC34)c3ccc(O)cc3)c(=O)[nH]2)cc1 (stereo partly drawn) [Example 8, N-[6-[4-(N-Acetyl-D-alanylamino)phenyl]-1,2-dihydro-2-oxonicotinyl]-7-[D-2-amino-2-(4-hydroxyphenyl)acetamido]-3-acetoxymethyl-3-cephem-4-carboxylic acid]
MIC (Pseudomonas #28): 1.6 µg/mL (≈ 2.14 µM)
MIC (Pseudomonas BRK 12-4-4): 6.3 µg/mL (≈ 8.44 µM)
MIC (Pseudomonas UI 18): 3.1 µg/mL (≈ 4.15 µM)
MIC (E. Coli. Brig): 12.5 µg/mL (≈ 16.7 µM)
MIC (E. Coli. Vogel): 3.1 µg/mL (≈ 4.15 µM)
MIC (Prot Vulg.): 12.5 µg/mL (≈ 16.7 µM)
MIC (Entero Cloac. IM 11): 12.5 µg/mL (≈ 16.7 µM)
MIC (Serr. Mar. IMM 16): 50 µg/mL (≈ 67 µM)
MIC (Klebs. Pneum. MGH 2): 6.3 µg/mL (≈ 8.44 µM)
MIC (Strep. fec. MGH 2): 12.5 µg/mL (≈ 16.7 µM)
MIC (Staph UC76): 1.6 µg/mL (≈ 2.14 µM)
MIC (Staph S 18713): 6.3 µg/mL (≈ 8.44 µM)

CC(=O)N[C@@H](CCC(N)=O)C(=O)Nc1ccc(-c2ccc(C(=O)N[C@@H](C(=O)NC3C(=O)N4C(C(=O)O)=C(CSc5nnnn5C)CSC34)c3ccccc3)c(=O)[nH]2)cc1 (stereo partly drawn) [Example 9, N-[6-[4-(N-Acetyl-L-glutaminylamino)phenyl]-1,2-dihydro-2-oxonicotinyl]-7-(D-2-amino-2-phenylacetamido]-3-[[(1-methyl-1H-tetrazol-5-yl)thio]methyl]-3-cephem-4-carboxylic acid]
MIC (Pseudomonas #28): 3.1 µg/mL (≈ 3.67 µM)
MIC (Pseudomonas BRK 12-4-4): 6.3 µg/mL (≈ 7.47 µM)
MIC (Pseudomonas UI 18): 6.3 µg/mL (≈ 7.47 µM)
MIC (E. Coli. Brig): 3.1 µg/mL (≈ 3.67 µM)
MIC (E. Coli. Vogel): 0.4 µg/mL (≈ 0.474 µM)
MIC (Prot Vulg.): 6.3 µg/mL (≈ 7.47 µM)
MIC (Entero Cloac. IM 11): 1.6 µg/mL (≈ 1.9 µM)
MIC (Serr. Mar. IMM 16): 12.5 µg/mL (≈ 14.8 µM)
MIC (Klebs. Pneum. MGH 2): 0.8 µg/mL (≈ 0.948 µM)
MIC (Strep. fec. MGH 2): 25 µg/mL (≈ 29.6 µM)
MIC (Staph UC76): 0.4 µg/mL (≈ 0.474 µM)
MIC (Staph S 18713): 3.1 µg/mL (≈ 3.67 µM)

CC(=O)N[C@H](C)C(=O)Nc1ccc(-c2ccc(C(=O)N[C@@H](C(=O)NC3C(=O)N4C(C(=O)O)=C(CSc5nnnn5CC(=O)O)CSC34)c3ccccc3)c(=O)[nH]2)cc1 (stereo partly drawn) [Example 1, N-[6-[4-(N-Acetyl-D-alanylamino)phenyl]-1,2-dihydro-2-oxonicotinyl]-7-[D-2-amino-2-phenylacetamido]-3-[[(1-carboxymethyl-1H-tetrazol-5-yl)thio]methyl]-3-cephem-4-carboxylic acid]
MIC (Pseudomonas #28): 6.3 µg/mL (≈ 7.58 µM)
MIC (Pseudomonas BRK 12-4-4): 12.5 µg/mL (≈ 15 µM)
MIC (Pseudomonas UI 18): 6.3 µg/mL (≈ 7.58 µM)
MIC (E. Coli. Brig): 6.3 µg/mL (≈ 7.58 µM)
MIC (E. Coli. Vogel): 0.4 µg/mL (≈ 0.481 µM)
MIC (Prot Vulg.): 3.1 µg/mL (≈ 3.73 µM)
MIC (Entero Cloac. IM 11): 3.1 µg/mL (≈ 3.73 µM)
MIC (Serr. Mar. IMM 16): 12.5 µg/mL (≈ 15 µM)
MIC (Klebs. Pneum. MGH 2): 3.1 µg/mL (≈ 3.73 µM)
MIC (Strep. fec. MGH 2): > 50 µg/mL
MIC (Staph UC76): 3.1 µg/mL (≈ 3.73 µM)
MIC (Staph S 18713): 12.5 µg/mL (≈ 15 µM)

CC(=O)N[C@H](CC(N)=O)C(=O)Nc1ccc(-c2ccc(C(=O)N[C@@H](C(=O)NC3C(=O)N4C(C(=O)O)=C(COC(C)=O)CSC34)c3ccccc3)c(=O)[nH]2)cc1 (stereo partly drawn) [Example 13, N-[6-[4-(N-Acetyl-D-aspariginylamino)phenyl]-1,2-dihydro-2-oxonicotinyl]-7-[D-2-amino-2-phenylacetamido]-3-acetoxymethyl-3-cephem-4-carboxylic acid]
MIC (Pseudomonas #28): 12.5 µg/mL (≈ 16.2 µM)
MIC (Pseudomonas BRK 12-4-4): 12.5 µg/mL (≈ 16.2 µM)
MIC (Pseudomonas UI 18): 6.3 µg/mL (≈ 8.14 µM)
MIC (E. Coli. Brig): 12.5 µg/mL (≈ 16.2 µM)
MIC (E. Coli. Vogel): 3.1 µg/mL (≈ 4.01 µM)
MIC (Prot Vulg.): 25 µg/mL (≈ 32.3 µM)
MIC (Entero Cloac. IM 11): 12.5 µg/mL (≈ 16.2 µM)
MIC (Serr. Mar. IMM 16): > 50 µg/mL
MIC (Klebs. Pneum. MGH 2): 6.3 µg/mL (≈ 8.14 µM)
MIC (Strep. fec. MGH 2): 25 µg/mL (≈ 32.3 µM)
MIC (Staph UC76): 0.8 µg/mL (≈ 1.03 µM)
MIC (Staph S 18713): 6.3 µg/mL (≈ 8.14 µM)

CC(=O)NC(C)C(=O)Nc1ccc(-c2ccc(C(=O)N[C@@H](C(=O)NC3C(=O)N4C(C(=O)O)=C(COC(N)=O)CSC34)c3ccccc3)c(=O)[nH]2)cc1 (mixture of isomers) [Example 10, N-[6-[4(N-Acetyl-DL-alanylamino)phenyl]-1,2-dihydro-2-oxonicotinyl]-7-[D-2-amino-2-phenylacetamido]-3-carbamoyloxymethyl-3-cephem-4-carboxylic acid]
MIC (Pseudomonas #28): 3.1 µg/mL
MIC (Pseudomonas BRK 12-4-4): 12.5 µg/mL
MIC (Pseudomonas UI 18): 6.3 µg/mL
MIC (E. Coli. Brig): 12.5 µg/mL
MIC (E. Coli. Vogel): 6.3 µg/mL
MIC (Prot Vulg.): 12.5 µg/mL
MIC (Entero Cloac. IM 11): 25 µg/mL
MIC (Serr. Mar. IMM 16): > 50 µg/mL
MIC (Klebs. Pneum. MGH 2): 12.5 µg/mL
MIC (Strep. fec. MGH 2): 12.5 µg/mL
MIC (Staph UC76): 1.6 µg/mL
MIC (Staph S 18713): 3.1 µg/mL

CC(=O)N[C@@H](C)C(=O)Nc1ccc(-c2ccc(C(=O)N[C@@H](C(=O)NC3C(=O)N4C(C(=O)O)=C(COC(C)=O)CSC34)c3ccccc3)c(=O)[nH]2)cc1 (stereo partly drawn) [Example 5, N-[6-[4-(N-Acetyl-L-alanylamino)phenyl]-1,2-dihydro-2-oxonicotinyl]-6-[D-2-amino-2-phenylacetamido]-3-acetoxymethyl-3-cephem-4-carboxylic acid]
MIC (Pseudomonas #28): 6.3 µg/mL (≈ 8.62 µM)
MIC (Pseudomonas BRK 12-4-4): 12.5 µg/mL (≈ 17.1 µM)
MIC (Pseudomonas UI 18): 6.3 µg/mL (≈ 8.62 µM)
MIC (E. Coli. Brig): 12.5 µg/mL (≈ 17.1 µM)
MIC (E. Coli. Vogel): 1.6 µg/mL (≈ 2.19 µM)
MIC (Prot Vulg.): 25 µg/mL (≈ 34.2 µM)
MIC (Entero Cloac. IM 11): 12.5 µg/mL (≈ 17.1 µM)
MIC (Serr. Mar. IMM 16): 50 µg/mL (≈ 68.4 µM)
MIC (Klebs. Pneum. MGH 2): 12.5 µg/mL (≈ 17.1 µM)
MIC (Strep. fec. MGH 2): 25 µg/mL (≈ 34.2 µM)
MIC (Staph UC76): 0.8 µg/mL (≈ 1.09 µM)
MIC (Staph S 18713): 1.6 µg/mL (≈ 2.19 µM)

CC(=O)OCC1=C(C(=O)O)N2C(=O)C(NC(=O)[C@H](NC(=O)c3ccc(-c4ccc(NC(=O)[C@@H]5CCC(=O)N5)cc4)[nH]c3=O)c3ccccc3)C2SC1 (stereo partly drawn) [Example 6, N-[6-[4-(L-Pyroglutamylamino)phenyl]-1,2-dihydro-2-oxonicotinyl]-7-[D-2-amino-2-phenylacetamido]-3-acetoxymethyl-3-cephem-4-carboxylic acid]
MIC (Pseudomonas #28): 12.5 µg/mL (≈ 17.2 µM)
MIC (Pseudomonas BRK 12-4-4): 12.5 µg/mL (≈ 17.2 µM)
MIC (Pseudomonas UI 18): 6.3 µg/mL (≈ 8.65 µM)
MIC (E. Coli. Brig): 25 µg/mL (≈ 34.3 µM)
MIC (E. Coli. Vogel): 3.1 µg/mL (≈ 4.25 µM)
MIC (Prot Vulg.): 25 µg/mL (≈ 34.3 µM)
MIC (Entero Cloac. IM 11): 12.5 µg/mL (≈ 17.2 µM)
MIC (Serr. Mar. IMM 16): 50 µg/mL (≈ 68.6 µM)
MIC (Klebs. Pneum. MGH 2): 6.3 µg/mL (≈ 8.65 µM)
MIC (Strep. fec. MGH 2): 25 µg/mL (≈ 34.3 µM)
MIC (Staph UC76): 0.8 µg/mL (≈ 1.1 µM)
MIC (Staph S 18713): 3.1 µg/mL (≈ 4.25 µM)
